How the values were obtained:
miR-17 [1] = assay: miR-17 PD-Sig in mouse kidney cell lines; type: cell-based
Procedure: The activity of certain compounds was evaluated using a mouse miR-17 Pharmacodynamic-Signature (miR-17 PD-Sig), which consists of the expression of 18 unique miR-17 target genes normalized by six reference housekeeping genes, to provide an unbiased and comprehensive assessment of miR-17 activity. The mouse miR-17 PD-Sig score was the calculated average of the 18 genes' individual log 2 fold changes (normalized by six housekeeping genes) compared to mock transfection (Lee et al., Nat. Commun., 2019, 10, 4148).
The PD-Sig for RGLS4326 in mIMCD3 cells (77.2, indicated by “*”) was not generated in this experiment; the value in Table 14 is that reported by Lee et al., Nat. Commun., 2019, 10, 4148. Blank cells in the table indicate that a compound was not tested in a particular cell line.

mice = assay: High-dose subcutaneous mouse toxicity studies, CNS-related findings; details: for CNS toxicity in high-dose mouse toxicity studies: single 2000 mg/kg and/or escalating doses 100, 450, 2000 mg/kg, in words
Procedure: Each compound was tested in a single dose at 2000 mg/kg, and at escalating doses (100, 450, and 2000 mg/kg).

miR-17 [2] = assay: miR-17 luciferase sensor assay in HeLa cells; type: cell-based; details: for EC50: HeLa cells, 18- to 24-hour transfection
Procedure: The in vitro potency of certain compounds was evaluated using a miR-17 luciferase sensor assay which uses a luciferase reporter vector for miR-17, with two fully complementary miR-17 binding sites in tandem in the 3′-UTR of the luciferase gene. HeLa cells were co-transfected with the luciferase reporter vector and an exogenous miR-17-expression vector that acted to repress the luciferase signal.

miR-17 [3] = assay: microRNA polysome shift assay (miPSA) in kidney of wild type mice; type: in vivo, mouse; set-up: scale not given here; details: seven days later
Procedure: In vivo potency was evaluated using the microRNA polysome shift assay (miPSA). This assay was used to determine the extent to which compounds directly engage the miR-17 target in the kidney in normal and PKD mice. The miPSA relies on the principle that active miRNAs bind to their mRNA targets in translationally active high molecular weight (HMW) polysomes, whereas the inhibited miRNAs reside in the low MW (LMW) polysomes. Treatment with anti-miR results in a shift of the microRNA from HMW polysomes to LMW polysomes. Thus, the miPSA provides a direct measurement of microRNA target engagement by a complementary anti-miR (Androsavich et al., Nucleic Acids Research, 2015, 44: e13).
Wild type mice were administered a single dose of 0.3 mg/kg, 3 mg/kg, or 30 mg/kg. Kidney tissue was collected seven days later and subjected to the miPSA. The mean displacement score for each treatment is shown in Table 15 (PBS, n=17; RGLS4326 30 mg/kg, n=10; all other treatments, n=4-5). The tested oligonucleotides displaced miR-17 from translationally active polysome (as measured by miPSA) in normal mouse kidneys.

AMPA-R (GluA1/GluA4) = target: T1, AMPA-R (GluA1/GluA4) (Homo sapiens, UniProt P42261+P48058); assay: Manual whole-cell patch clamp, ChanTest GluA1/GluA4 EZCells; type: cell-based
T1 construct: host or cells: ChanTest GluA1/GluA4 EZCells
T1 sequence (P42261 19-906): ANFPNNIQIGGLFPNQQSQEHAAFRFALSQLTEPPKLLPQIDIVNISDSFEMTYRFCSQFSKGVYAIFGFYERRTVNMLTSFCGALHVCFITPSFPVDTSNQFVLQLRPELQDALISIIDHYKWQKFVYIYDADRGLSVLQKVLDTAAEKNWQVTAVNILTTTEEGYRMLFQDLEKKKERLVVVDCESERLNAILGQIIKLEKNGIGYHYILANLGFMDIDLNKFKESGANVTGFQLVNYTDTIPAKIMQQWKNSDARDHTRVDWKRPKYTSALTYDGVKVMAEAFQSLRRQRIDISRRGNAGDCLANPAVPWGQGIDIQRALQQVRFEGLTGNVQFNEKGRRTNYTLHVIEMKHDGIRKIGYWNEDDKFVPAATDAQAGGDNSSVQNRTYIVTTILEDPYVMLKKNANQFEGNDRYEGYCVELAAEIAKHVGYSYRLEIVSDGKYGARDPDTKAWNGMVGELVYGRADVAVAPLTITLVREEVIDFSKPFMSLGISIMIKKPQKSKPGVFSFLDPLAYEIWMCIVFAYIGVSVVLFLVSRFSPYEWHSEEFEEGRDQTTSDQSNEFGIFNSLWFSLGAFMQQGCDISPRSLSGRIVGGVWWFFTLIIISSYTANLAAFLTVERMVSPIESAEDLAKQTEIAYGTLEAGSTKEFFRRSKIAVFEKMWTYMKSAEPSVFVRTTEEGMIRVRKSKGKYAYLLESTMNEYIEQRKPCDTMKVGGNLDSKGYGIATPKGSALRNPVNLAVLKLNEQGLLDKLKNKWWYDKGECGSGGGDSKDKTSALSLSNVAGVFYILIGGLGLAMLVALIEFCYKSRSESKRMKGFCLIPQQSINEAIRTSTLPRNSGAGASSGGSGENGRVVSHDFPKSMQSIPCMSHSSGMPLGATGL
T1 sequence (P48058 21-902): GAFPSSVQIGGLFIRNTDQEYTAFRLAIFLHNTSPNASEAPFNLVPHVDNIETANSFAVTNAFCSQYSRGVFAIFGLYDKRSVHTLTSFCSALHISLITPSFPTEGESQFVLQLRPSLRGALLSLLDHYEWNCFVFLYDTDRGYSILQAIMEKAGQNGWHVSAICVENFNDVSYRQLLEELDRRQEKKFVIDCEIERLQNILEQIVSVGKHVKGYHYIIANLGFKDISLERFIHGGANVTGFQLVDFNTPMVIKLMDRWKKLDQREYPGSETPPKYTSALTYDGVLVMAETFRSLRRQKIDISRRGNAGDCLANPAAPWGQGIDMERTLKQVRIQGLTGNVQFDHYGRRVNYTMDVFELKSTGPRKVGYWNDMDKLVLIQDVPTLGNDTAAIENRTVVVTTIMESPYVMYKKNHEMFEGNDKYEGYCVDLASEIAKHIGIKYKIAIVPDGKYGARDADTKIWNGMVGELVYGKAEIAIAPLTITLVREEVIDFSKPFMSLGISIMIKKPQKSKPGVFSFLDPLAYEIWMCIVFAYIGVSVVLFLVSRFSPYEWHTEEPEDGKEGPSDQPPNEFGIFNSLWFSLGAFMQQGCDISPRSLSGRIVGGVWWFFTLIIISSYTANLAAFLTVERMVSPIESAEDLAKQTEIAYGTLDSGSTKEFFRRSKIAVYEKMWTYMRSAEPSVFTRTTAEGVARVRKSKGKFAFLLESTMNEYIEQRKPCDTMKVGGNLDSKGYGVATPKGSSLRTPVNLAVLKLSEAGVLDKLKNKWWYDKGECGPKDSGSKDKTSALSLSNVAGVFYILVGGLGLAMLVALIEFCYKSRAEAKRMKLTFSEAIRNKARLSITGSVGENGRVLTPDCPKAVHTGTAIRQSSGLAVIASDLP
Procedure: To evaluate functional antagonism of anti-miR-17 oligonucleotides towards the AMPA-R, certain oligonucleotides were tested using the manual whole-cell patch clamp technique, which records membrane currents as a measure of AMPA-R activity.
Manual whole-cell patch clamp studies were performed by Metrion Biosciences (Cambridge, UK). Whole-cell voltage clamp experiments were performed at room temperature (18-21° C.) using an EPC10 patch clamp amplifier using Patchmaster software (HEKA Elektronik). Glass patch pipettes were fabricated from borosilicate glass capillaries (Harvard Apparatus) to resistances between 1.4 and 2.5 MΩ. Membrane currents were recorded using the whole-cell patch clamp technique. ChanTest® GluA1/GluA4 EZCells were clamped at a holding potential of −80 mV and membrane currents elicited by 10 μM(S)-AMPA delivered using a VC38 perfusion system (ALA Scientific Instruments). The […] current amplitude values were measured with each application of 10 μM(S)-AMPA. The fractional change of current amplitude produced by each concentration of compound was calculated relative to the control current (pre-compound) and expressed as percentage change (% inhibition) for each cell. RGLS4326 was tested in a separate study from all other compounds in Table 6.

[4] = system: KspCre/Pkd1F/RC (Pkd1-F/RC) mice; assay: Efficacy in Pkd1-F/RC mouse model of ADPKD; type: in vivo; details: 20 mg/kg SC on days 8, 10, 12, 15 of age; for Mean BW/KW Ratio / Mean Serum BUN / Mean Serum Creatine: sacrificed at 18 days
Procedure: Mice were sacrificed at 18 days of age, and kidney weight, body weight, cyst index, serum creatinine level, and blood urea nitrogen (BUN) level were measured. BUN level is a marker of kidney function. A higher BUN level correlates with poorer kidney function, thus a reduction in BUN level is an indicator of reduced kidney injury and damage and improved function. Statistical significance was calculated by one-way ANOVA with Dunnett's multiple correction.

miR-17 [5] = assay: miR-17 PD-Sig in human kidney cell lines; type: cell-based
AMPA-R = assay: [3H]AMPA radioligand binding assay on rat brain synaptic membranes; details: for % Inhibition @ Concentration 100 uM: Table 8 (3′-terminal nucleobase/sugar variants); for % Inhibition @ Concentration 0.1 uM: Table 8, 0.1 uM; for % Inhibition @ Concentration 1 uM: Table 8, 1 uM; for % Inhibition @ Concentration 10 uM: Table 8, 10 uM;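 on all read-outs here: competition binding in which test compounds at rising concentrations displace [3H]AMPA from AMPA-R on rat brain synaptic membranes, with reduced bound radioligand as read-out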
Procedure: The activity of anti-miR-17 compounds was evaluated in a radioligand binding assay which measured the binding of the [^3H] AMPA ligand to the AMPA-R present on rat brain synaptic membranes, in the presence of increasing concentrations of anti-miR-17 compound, anti-miR-17 compounds with affinity for the AMPA-R will bind to and compete with the binding of the [^3H] AMPA ligand.
5.0 nM of the ligand [^3H] AMPA, 1.0 mM of the non-specific ligand L-Glutamic acid, and anti-miR compound at uM concentrations were incubated with synaptic membranes prepared from Wistar rat cerebral cortex for 90 minutes.
The compounds were tested in the radioligand binding assay described herein, to determine the ability of the anti-miR-17 compounds to and compete with the binding of the [3H] AMPA ligand.

AMPA glutamate receptor = assay: Patch clamp activity (RGLS4326, off-target follow-up); type: cell-based
Procedure: To identify potential candidates for off-target pharmacology, a panel of 174 targets including G-protein coupled receptors, transporters, ion channels, nuclear receptors, and cytokine receptors was evaluated in vitro for possible interactions with RGLS4326. […] AMPA receptors are ion channels on excitatory synapses in the CNS that mediate fast excitatory neurotransmission and, therefore, are key components of all neuronal networks. Such an interaction with the AMPA receptor could explain the CNS-mediated findings observed at high doses of RGLS4326 in nonclinical toxicology models.

| Sequence | EC50 (miR-17 [1]; D52B5, mouse, PKD) [nM] | CNS toxicity in high-dose mouse toxicity studies (mice) | Log2FC (37.5 nM) (miR-17 [2]) | EC50 (miR-17 [2]) [nM] | miPSA Displacement Score, Mean (miR-17 [3]; single dose 3 mg/kg) | miPSA Displacement Score, Mean (miR-17 [3]; single dose 30 mg/kg) | miPSA Displacement Score, Mean (miR-17 [3]; single dose 0.3 m/kg) | % Inhibition on membrane currents evoked with 10 uM (s)-AMPA (Mean ± SD) (AMPA-R (GluA1/GluA4); 0.3 uM compound) [%] | % Inhibition on membrane currents evoked with 10 uM (s)-AMPA (Mean ± SD) (AMPA-R (GluA1/GluA4); 3 uM compound) [%] | BW/KW Ratio, Mean Difference vs. PBS [4] | Serum BUN, Mean Difference vs. PBS [4] | Serum Creatine, Mean Difference vs. PBS [4] | Mean BW/KW Ratio [4] | Mean Serum BUN [4] | Mean Serum Creatine [4] | EC50 (miR-17 [5]; HK-2, human, Normal) [nM] | EC50 (miR-17 [5]; WT9-7, human, PKD) [nM] | IC50 (AMPA-R; Experiment #2) [nM] | % Inhibition @ 0.1 uM (AMPA-R; Experiment #2, 0.1 uM) [%] | % Inhibition @ 1 uM (AMPA-R; Experiment #2, 1 uM) [%] | further results |
| --- | --- | --- | --- | --- | --- | --- | --- | --- | --- | --- | --- | --- | --- | --- | --- | --- | --- | --- | --- | --- | --- |
| ASGSCMAFCFUFUMUSAS [RG-NG-1015] | 82.4 | no CNS-toxicity were observed | 2.51 | 22.4 | 2.562 | 2.718 | 2.238 | 16.0 ± 5.0 | 39.5 ± 5.4 | −48.79 | −20.21 | −0.034 | 16.83 | 22.26 | 0.1279 | 55.6 | 21.2 | > 100000 | 2.3 | 11 | EC50 (miR-17 [1]; mIMCD3, mouse, Normal): 168 nM; CNS-related findings noted (mice; SC 2000 mg/kg, Single): No; CNS-related findings noted (mice; SC 100, 450, 2000 mg/kg/dose, QDx4): No; functional antagonism towards AMPA-R relative to RGLS4326 (AMPA-R (GluA1/GluA4); in words): reduced functional antagonism towards AMPA-R; % Inhibition @ 10 uM (AMPA-R; Experiment #2, 10 uM): 6.5%; % Inhibition @ 100 uM (AMPA-R; Experiment #2, 100 uM): 19.9%; IC50 (AMPA-R; Table 8): ≥ 100000 nM; % Inhibition @ Concentration 100 uM (AMPA-R): 5.6%; % Inhibition @ Concentration 0.1 uM (AMPA-R): −0.8%; % Inhibition @ Concentration 1 uM (AMPA-R): −10.3%; % Inhibition @ Concentration 10 uM (AMPA-R): −7% |
| ASGSCMAFCFUFUMUSGS [RGLS4326, reference compound] | 92.8 | ataxia, lethargy, and in the case of RGLS4326, unconsciousness at the highest dose | 2.70 | 18.5 | 2.247 | 2.362 | 1.846 | 46.9 ± 9.8 | 87.4 ± 7.9 | −48.8 | −20.06 | −0.03463 | 16.81 | 22.41 | 0.1273 | 47.8 | 17.3 | 270 | 31.5 | 73.1 | functional IC50 based on patch clamp activity (AMPA glutamate receptor): 0.9 to 1.8 µg/mL; IC50 (AMPA glutamate receptor; read-out: functional IC50 based on patch clamp activity): 300 to 600 nM; IC50 (AMPA-R; Experiment #1): 700 nM; % Inhibition @ 0.1 uM (AMPA-R; Experiment #1, 0.1 uM): 17.6%; % Inhibition @ 1 uM (AMPA-R; Experiment #1, 1 uM): 55.5%; % Inhibition @ 10 uM (AMPA-R; Experiment #1, 10 uM): 93%; % Inhibition @ 100 uM (AMPA-R; Experiment #1, 100 uM): 104.1%; % Inhibition @ 10 uM (AMPA-R; Experiment #2, 10 uM): 93.6%; % Inhibition @ 100 uM (AMPA-R; Experiment #2, 100 uM): 96.8%; IC50 (AMPA-R; Experiment #3): 780 nM; % Inhibition @ 0.1 uM (AMPA-R; Experiment #3, 0.1 uM): 14.6%; % Inhibition @ 1 uM (AMPA-R; Experiment #3, 1 uM): 55.8%; % Inhibition @ 10 uM (AMPA-R; Experiment #3, 10 uM): 89%; % Inhibition @ 100 uM (AMPA-R; Experiment #3, 100 uM): 97.2%; IC50 (AMPA-R; Table 8): 1610 nM; % Inhibition @ Concentration 100 uM (AMPA-R): 99.7%; % Inhibition @ Concentration 0.1 uM (AMPA-R): −0.1%; % Inhibition @ Concentration 1 uM (AMPA-R): 40.8%; % Inhibition @ Concentration 10 uM (AMPA-R): 83.5% |
